pIC50: −log10 of the molar value.
The molecules below were run against T1, GST-YTHDC1 (345-509) protein (Homo sapiens, UniProt Q96MU7) (assay: Fluorescence polarization-based in vitro enzyme-level test against YTHDC1). Conditions: 30 nM GST-YTHDC1 (345-509), FAM-labeled m6A-modified single-stranded oligonucleotide, 18° C., 4 hours; read-out: IC50 (Inhibitory Activity against YTHDC1).
T1 construct: GST-YTHDC1 (345-509) protein
Assay type: binding

Row | pIC50 | SMILES
1 | 5.75 | O=C(Nc1cccnc1)c1cc(C(=O)c2ccccc2Br)c[nH]1 [Compound 5]
2 | < 4.30 | CC(C)n1nccc1-c1nccc2[nH]c(C(=O)Nc3ccc(-c4cncs4)cc3)cc12 [Compound 40]
3 | 7.92 | O=C(Nc1ccc(-c2cnco2)cc1)c1cc(C(=O)c2ccccc2N2CCSCC2)c[nH]1 [Compound 118]
4 | 7.66 | CN1C(=O)Cc2cc(-c3ccc(NC(=O)C4=CC(C(=O)c5ccccc5C(F)(F)F)CN4)cc3)ccc21 (stereo not drawn) [Compound 107]
5 | 6.03 | O=C(Nc1ccc(-c2cncs2)cc1)c1cc2c(-c3ccccc3N3CCOCC3)nccc2[nH]1 [Compound 56]
6 | < 4.30 | CC(C)(C)NS(=O)(=O)c1ccccc1-c1nccc2[nH]c(C(=O)Nc3ccc(-c4cncs4)cc3)cc12 [Compound 57]
7 | ≤ 4.30 | O=C(Nc1ccc(C(F)(F)F)cc1[N+](=O)[O-])c1cc(C(=O)c2ccccc2C(F)(F)F)c[nH]1 [Compound 112]
8 | 6.74 | COC(=O)c1cccc(-c2ccc(NC(=O)c3cc(C(=O)c4ccccc4C(F)(F)F)c[nH]3)cc2)c1 [Compound 108]
9 | 7.55 | O=C(Nc1ccc(-c2cnco2)cc1)c1cc(C(=O)c2ccccc2N2CCOC2=O)c[nH]1 [Compound 136]
10 | 5.60 | CN(C)c1ccccc1-c1nccc2[nH]c(C(=O)Nc3ccc(-c4cncs4)cc3)cc12 [Compound 61]
11 | 6.90 | CC(C)(C)OC(=O)N1CCN2c3ccc(NC(=O)c4cc(C(=O)c5ccccc5C(F)(F)F)c[nH]4)cc3OCC2C1 (stereo not drawn) [Compound 82]
12 | 5.55 | O=C(Nc1cccnc1)c1cc(C(=O)c2ccccc2Cl)c[nH]1 [Compound 8]
13 | 6.39 | CN1CCN2c3ccc(NC(=O)c4cc(C(=O)c5ccccc5C(F)(F)F)c[nH]4)cc3OCC2C1 (stereo not drawn) [Compound 92]
14 | 7.41 | Cc1cc(-c2cnco2)ccc1NC(=O)c1cc(C(=O)c2ccccc2C(F)(F)F)c[nH]1 [Compound 95]
15 | 7.89 | O=C(Nc1ccc(-c2cnc(N3CCCC3)s2)cc1)c1cc(C(=O)c2ccccc2C(F)(F)F)c[nH]1 [Compound 36]
16 | 7.89 | O=C1CC2C=C(c3ccc(NC(=O)c4cc(C(=O)c5ccccc5C(F)(F)F)c[nH]4)cc3)C=CC2N1 (stereo not drawn) [Compound 126]
17 | 7.64 | O=C(Nc1ccc(-c2cnc[nH]2)cc1)c1cc(C(=O)c2ccccc2C(F)(F)F)c[nH]1 [Compound 27]
18 | ≤ 4.30 | CC(C)(C)OC(=O)N1CCc2cc(-c3ccc(NC(=O)c4cc(C(=O)c5ccccc5C(F)(F)F)c[nH]4)cc3)ccc21 [Compound 124]
19 | 6.13 | O=C(Nc1ccc2c(c1)CCN2c1ccccc1)c1cc(C(=O)c2ccccc2C(F)(F)F)c[nH]1 [Compound 133]
20 | 5.20 | CS(=O)(=O)c1ccccc1-c1nccc2[nH]c(C(=O)Nc3ccc(-c4ccncc4)cc3)cc12 [Compound 73]
21 | 6.72 | O=C(Nc1ccc(-c2cnco2)cc1)c1cc(C(=O)c2ccccc2N2CCCCCCC2)c[nH]1 [Compound 141]
22 | 8.07 | CN(C)c1ncc(-c2ccc(NC(=O)c3cc(C(=O)c4ccccc4C(F)(F)F)c[nH]3)cc2)o1 [Compound 75]
23 | 6.43 | CS(=O)(=O)c1ccccc1-c1cccc2[nH]c(C(=O)Nc3ccc(-c4cncs4)cc3)cc12 [Compound 69]
24 | 6.91 | O=C(Nc1ccc(-c2cnc(N3CCOCC3)o2)cc1)c1cc(C(=O)c2ccccc2Br)c[nH]1 [Compound 78]
25 | ≤ 4.30 | O=C(Nc1ccc(C(=O)N2CCC3(CC2)OCc2ccccc23)cc1)c1cc(C(=O)c2ccccc2C(F)(F)F)c[nH]1 [Compound 120]
26 | 7.64 | O=C(Nc1ccc(-c2ccccn2)cc1)c1cc(C(=O)c2ccccc2C(F)(F)F)c[nH]1 [Compound 22]
27 | 4.85 | O=C(Nc1ccc(Cc2ccccc2)cc1)c1cc(C(=O)c2ccccc2C(F)(F)F)c[nH]1 [Compound 119]

Row | pIC50 | SMILES
28 | 6.28 | Cn1nc(C(F)(F)F)cc1-c1ccc(NC(=O)c2cc(C(=O)c3ccccc3C(F)(F)F)c[nH]2)cc1 [Compound 30]
29 | 7.33 | O=C(Nc1ccc(-c2cccnc2)cc1)c1cc(C(=O)c2ccccc2C(F)(F)F)c[nH]1 [Compound 23]
30 | 5.58 | O=C(Nc1cccc(C(F)(F)F)c1)c1cc(C(=O)c2ccccc2C(F)(F)F)c[nH]1 [Compound 115]
31 | < 4.30 | O=C(Nc1ccc(-c2cncs2)cc1)c1cc2c(-c3ccccc3C3CC3)nccc2[nH]1 [Compound 66]
32 | < 4.30 | O=C(Nc1ccc(-c2cncs2)cc1)c1cc2c(-c3ccccc3OC3CC3)nccc2[nH]1 [Compound 67]
33 | 8.05 | O=C(Nc1ccc(-c2cnco2)c(F)c1)c1cc(C(=O)c2ccccc2C(F)(F)F)c[nH]1 [Compound 93]
34 | 6.38 | CN(C)c1ccccc1-c1ccc(NC(=O)c2cc(C(=O)c3ccccc3C(F)(F)F)c[nH]2)cc1 [Compound 110]
35 | 7.82 | CN(C)CCOc1cc(NC(=O)c2cc(C(=O)c3ccccc3C(F)(F)F)c[nH]2)ccc1-c1cnco1 [Compound 98]
36 | < 4.30 | O=C(Nc1ccc(-c2cncs2)cc1)c1cc2c(-c3ccccc3F)nccc2[nH]1 [Compound 53]
37 | < 4.30 | COc1cnccc1-c1nccc2[nH]c(C(=O)Nc3ccc(-c4cncs4)cc3)cc12 [Compound 46]
38 | 6.21 | O=C(Nc1ccccc1F)c1cc(C(=O)c2ccccc2C(F)(F)F)c[nH]1 [Compound 13]
39 | 6.03 | O=C(Nc1ccc2c(c1)OCC1CNCCN21)c1cc(C(=O)c2ccccc2C(F)(F)F)c[nH]1 (stereo not drawn) [Compound 91]
40 | < 4.30 | O=C(Nc1cccnc1)c1cc(C(=O)c2c(F)cc(F)cc2Br)c[nH]1 [Compound 3]
41 | 7.64 | CCOC(=O)c1ccc(NC(=O)c2cc(C(=O)c3ccccc3C(F)(F)F)c[nH]2)cc1 [Compound 20]
42 | 6.37 | O=C(Nc1ccc(-c2cnc(N3CC(F)(F)C3)s2)cc1)c1cc(C(=O)c2ccccc2C(F)(F)F)c[nH]1 [Compound 35]
43 | 7.64 | O=C(Nc1ccc(-c2cnco2)cc1)c1cc(C(=O)c2ccccc2N2CCCC2)c[nH]1 [Compound 128]
44 | 4.51 | CC(C)(C)OC(=O)n1cc(-c2ccc(NC(=O)c3cc(C(=O)c4ccccc4C(F)(F)F)c[nH]3)cc2)c2ccccc21 [Compound 129]
45 | 5.41 | N#Cc1ccccc1-c1nccc2[nH]c(C(=O)Nc3ccc(-c4cncs4)cc3)cc12 [Compound 43]
46 | 7.00 | O=C(Nc1ccc(-c2cnco2)cc1)c1cc(C(=O)c2ccccc2N2CC3CCC2CO3)c[nH]1 (stereo not drawn) [Compound 134]
47 | 7.89 | CCN(C)c1ccccc1C(=O)c1c[nH]c(C(=O)Nc2ccc(-c3cnco3)cc2)c1 [Compound 127]
48 | 7.68 | O=C(Nc1ccc(-c2cnco2)cc1)c1cc(C(=O)c2ccccc2C2CCCC2)c[nH]1 [Compound 146]
49 | 5.98 | CN1CCN(c2ccccc2C(=O)c2c[nH]c(C(=O)Nc3ccc(-c4cnco4)cc3)c2)CC1 [Compound 139]
50 | 6.95 | O=C(Nc1ccc(-c2ocnc2CO)cc1)c1cc(C(=O)c2ccccc2C(F)(F)F)c[nH]1 [Compound 94]
51 | < 4.30 | O=C(Nc1ccc(-c2cnc(N3CCN(S(=O)(=O)Cc4ccccc4)CC3)o2)cc1)c1cc(C(=O)C2C=CC=CC2C(F)(F)F)c[nH]1 (stereo not drawn) [Compound 89]
52 | 4.95 | CSc1ccccc1-c1nccc2[nH]c(C(=O)Nc3ccc(-c4cncs4)cc3)cc12 [Compound 65]
53 | 7.21 | O=C(Nc1ccc(-c2cnc(N3CCNCC3)o2)cc1)c1cc(C(=O)c2ccccc2C(F)(F)F)c[nH]1 [Compound 81]
54 | < 4.30 | O=C(c1ccccc1)c1c[nH]c(C(=O)Nc2cccnc2)c1 [Compound 6]

— patent US20260265222A1, “1H-PYRROLE-2-AMIDE DERIVATIVE, PHARMACEUTICAL COMPOSITION AND METHOD FOR TREATING AND/OR PREVENTING YTHDC1-RELATED DISEASES” (priority 2023, published 2026)
